Assay [1] addresses T1, GABA A receptor α1β3γ2 (hα1) (Homo sapiens, UniProt P14867+P18507).
T1 construct: expressed in transfected cells; host or cells: HEK293, transiently transfected; membranes
The assay is described as follows: [3H]flumazenil competition binding, human GABA A α1β3γ2. As to the method: (§1) The affinity of compounds at GABA A receptor subtypes was measured by competition for [^3H]flumazenil (85 Ci/mmol; Roche) binding to HEK293 cells expressing rat (stably transfected) or human (transiently transfected) receptors of composition α1β3γ2, α2β3γ2, α3β3γ2 and α5β3γ2.
(§2) Cell pellets were suspended in Krebs-tris buffer (4.8 mM KCl, 1.2 mM CaCl2, 1.2 mM MgCl2, 120 mM NaCl, 15 mM Tris; pH 7.5; binding assay buffer), homogenized by polytron for ca. 20 sec on ice and centrifuged for 60 min at 4° C. (50000 g; Sorvall, rotor: SM24=20000 rpm). The cell pellets were resuspended in Krebs-tris buffer and homogenized by polytron for ca. 15 sec on ice. Protein was measured (Bradford method, Bio-Rad) and aliquots of 1 mL were prepared and stored at −80° C.
(§3) Radioligand binding assays were carried out in a volume of 200 μL (96-well plates) which contained 100 μL of cell memebranes, [^3H]flumazenil at a concentration of 1 nM for α1, α2, α3 subunits and 0.5 nM for α5 subunits and the test compound in the range of 10^−10−3×10^−6 M. Nonspecific binding was defined by 10^−5 M diazepam and typically represented less than 5% of the total binding. Assays were incubated to equilibrium for 1 hour at 4° C. and harvested onto GF/C uni-filters (Packard) by filtration using a Packard harvester and washing with ice-cold wash buffer (50 mM Tris; pH 7.5). After drying, filter-retained radioactivity was detected by liquid scintillation counting. Ki values were calculated using Excel-Fit (Microsoft) and are the means of two determinations.

Assay [2] has as its target T2, GABA A receptor α2β3γ2 (hα2) (Homo sapiens, UniProt P18507+P47869).
T2 construct: expressed in transfected cells; host or cells: HEK293, transiently transfected; membranes
The assay is described as follows: [3H]flumazenil competition binding, human GABA A α2β3γ2. As to the method: as §1, §2, §3

For assay [3], the target named is T3, GABA A receptor α3β3γ2 (hα3) (Homo sapiens, UniProt P18507+P34903).
T3 construct: expressed in transfected cells; host or cells: HEK293, transiently transfected; membranes
The assay is described as follows: [3H]flumazenil competition binding, human GABA A α3β3γ2. Here is the method:
as §1, §2, §3

Assay [4] has as its target T4, GABA A receptor α5β3γ2 (hα5) (Homo sapiens, UniProt P18507+P31644).
T4 construct: expressed in transfected cells; host or cells: HEK293, transiently transfected; membranes
In words: [3H]flumazenil competition binding, human GABA A α5β3γ2. As to the method:
as §1, §2, §3

The mark [5] stands for this setting: HEK293 cells transiently transfected, 1 nM [3H]flumazenil, mean of two determinations, read-out: Ki[nM] hα1.
[6] abbreviates: HEK293 cells transiently transfected, 0.5 nM [3H]flumazenil, mean of two determinations, read-out: Ki[nM] hα5.
Where [7] appears, read: HEK293 cells transiently transfected, 1 nM [3H]flumazenil, mean of two determinations, read-out: Ki[nM] hα2.
The mark [8] stands for this setting: HEK293 cells transiently transfected, 1 nM [3H]flumazenil, mean of two determinations, read-out: Ki[nM] hα3.

22 molecules from patent US7507728B2, “Halogen substituted imidazol[1,5-A][1,2,4]triazolo[1,5-D][1,4]benzodiazepine derivatives” (priority 2004, dated 2009) can be followed below.

Molecules are shown by their SMILES. Like-named read-outs stand apart in the source and are kept apart here.

`Clc1ncn2c1Cn1ncnc1-c1ccccc1-2` [Example 1, 10-Chloro-9H-imidazo[1,5-a][1,2,4]triazolo[1,5-d][1,4]benzodiazepine]: the Ki in assay [1] (setting [5]) was 3.8 nM; in assay [2], 1.5 nM; in assay [3] it was 0.7 nM; in assay [4] (setting [6]), 0.3 nM.

Consider `Fc1ccc2c(c1)-c1ncnn1Cc1c(Cl)ncn1-2` [Example 2, 10-Chloro-3-fluoro-9H-imidazo[1,5-a][1,2,4]triazolo[1,5-d][1,4]benzodiazepine], for which the Ki in assay [1] (setting [5]) is 0.7 nM; in assay [2], 1.2 nM; in assay [3], 0.78 nM; in assay [4] (setting [6]) it was 0.3 nM.

`COc1ccc2c(c1)-c1ncnn1Cc1c(Cl)ncn1-2` [Example 3, 10-Chloro-3-methoxy-9H-imidazo[1,5-a][1,2,4]triazolo[1,5-d][1,4]benzodiazepine]: the inhibition constant Ki in assay [1] (setting [5]) came out at 12.2 nM; in assay [2], 17.2 nM; in assay [3], 11.7 nM; in assay [4] (setting [6]) it was 0.8 nM.

Turning to `FCCOc1ccc2c(c1)-c1ncnn1Cc1c(Cl)ncn1-2` [Example 7, 10-Chloro-3-(2-fluoro-ethoxy)-9H-imidazo[1,5-a][1,2,4]triazolo[1,5-d][1,4]benzodiazepine], the Ki turned out to be 18.5 nM in assay [1] (setting [5]), 25 nM in assay [2], 20.7 nM in assay [3] and 1.3 nM in assay [4] (setting [6]).

For the molecule `FC(F)COc1ccc2c(c1)-c1ncnn1Cc1c(Cl)ncn1-2` [Example 8, 10-Chloro-3-(2,2-difluoro-ethoxy)-9H-imidazo[1,5-a][1,2,4]triazolo[1,5-d][1,4]benzodiazepine], the Ki in assay [1] (setting [5]) came to 22.1 nM; in assay [2] it was 29.4 nM; in assay [3], 24.4 nM; in assay [4] (setting [6]) it was 2 nM.

As for `C=COc1ccc2c(c1)-c1ncnn1Cc1c(Cl)ncn1-2` [Example 10, 10-Chloro-3-vinyloxy-9H-imidazo[1,5-a][1,2,4]triazolo[1,5-d][1,4]benzodiazepine], the Ki in assay [1] (setting [5]) is 22.4 nM; in assay [2] it was 25.6 nM; in assay [3], 11.4 nM; in assay [4] (setting [6]) it was 1.2 nM.

`CNc1ccc2c(c1)-c1ncnn1Cc1c(Cl)ncn1-2` [Example 12, 10-Chloro-3-methylamino-9H-imidazo[1,5-a][1,2,4]triazolo[1,5-d][1,4]benzodiazepine]: the inhibition constant Ki in assay [1] (setting [5]) was determined as 5.9 nM; in assay [2], 15.7 nM; in assay [3] it was 8 nM; in assay [4] (setting [6]), 1.8 nM.

For the molecule `Clc1ncn2c1Cn1ncnc1-c1cc(Br)ccc1-2` [Example 21, 3-Bromo-10-chloro-9H-imidazo[1,5-a][1,2,4]triazolo[1,5-d][1,4]benzodiazepine], the Ki in assay [1] (setting [5]) was 33 nM; in assay [2] (setting [7]) it was 24.1 nM; in assay [3] (setting [8]) it was 8.8 nM; in assay [4] (setting [6]) it was 1.4 nM.

As to `Cc1ccc2c(c1)-c1ncnn1Cc1c(Cl)ncn1-2` [Example 22, 10-Chloro-3-methyl-9H-imidazo[1,5-a][1,2,4]triazolo[1,5-d][1,4]benzodiazepine], the Ki in assay [1] (setting [5]) stood at 19.6 nM; in assay [2] it was 40.5 nM; in assay [3] it was 21.4 nM; in assay [4] (setting [6]), 1.8 nM.

For `Clc1ncn2c1Cn1ncnc1-c1cc(C3CC3)ccc1-2` [Example 30, 10-Chloro-3-cyclopropyl-9H-imidazo[1,5-a][1,2,4]triazolo[1,5-d][1,4]benzodiazepine], the inhibition constant (Ki) in assay [1] (setting [5]) turned out to be 28.7 nM; in assay [2] it was 18.7 nM; in assay [3], 20.4 nM; in assay [4] (setting [6]), 1.2 nM.

`FC(F)c1ccc2c(c1)-c1ncnn1Cc1c(Cl)ncn1-2` [Example 32, 10-Chloro-3-difluoromethyl-9H-imidazo[1,5-a][1,2,4]triazolo[1,5-d][1,4]benzodiazepine]: the inhibition constant Ki in assay [1] (setting [5]) amounted to 20.5 nM; in assay [2], 40.1 nM; in assay [3], 16 nM; in assay [4] (setting [6]), 1.1 nM.

`Brc1ncn2c1Cn1ncnc1-c1ccccc1-2` [Example 46, 10-Bromo-9H-imidazo[1,5-a][1,2,4]triazolo[1,5-d][1,4]benzodiazepine]: the Ki in assay [1] (setting [5]) stood at 2.4 nM; in assay [2], 0.8 nM; in assay [3] it was 0.6 nM; in assay [4] (setting [6]), 0.2 nM.

For the molecule `Fc1ccc2c(c1)-c1ncnn1Cc1c(Br)ncn1-2` [Example 47, 10-Bromo-3-fluoro-9H-imidazo[1,5-a][1,2,4]triazolo[1,5-d][1,4]benzodiazepine], the Ki was 2.1 nM in assay [1] (setting [5]), 3.7 nM in assay [2], 3.9 nM in assay [3] and 0.5 nM in assay [4] (setting [6]).

On to `Clc1ccc2c(c1)-c1ncnn1Cc1c(I)ncn1-2` [Example 48, 3-Chloro-10-iodo-9H-imidazo[1,5-a][1,2,4]triazolo[1,5-d][1,4]benzodiazepine], for which the inhibition constant (Ki) in assay [1] (setting [5]) is 9.2 nM; in assay [2] it was 14.7 nM; in assay [3], 11.3 nM; in assay [4] (setting [6]), 1.4 nM.

Take `O=C(Nc1ccc2c(c1)-c1ncnn1Cc1c(Cl)ncn1-2)C1CC1` [Example 50, 3-(Cyclopropanecarbonyl-amino)-10-chloro-9H-imidazo[1,5-a][1,2,4]triazolo[1,5-d][1,4]benzodiazepine]: in assay [4] (setting [6]), the Ki is 15.8 nM.

As for `Clc1ncn2c1Cn1ncnc1-c1cc(-c3cccnc3)ccc1-2` [Example 57, 10-Chloro-3-(pyridin-3-yl)-9H-imidazo[1,5-a][1,2,4]triazolo[1,5-d][1,4]benzodiazepine], the Ki was found to be 9.4 nM in assay [1] (setting [5]), 33.9 nM in assay [2], 21.7 nM in assay [3] and 6.7 nM in assay [4] (setting [6]).

For the molecule `CCCc1ccc2c(c1)-c1ncnn1Cc1c(Cl)ncn1-2` [Example 64, 10-Chloro-3-propyl-9H-imidazo[1,5-a][1,2,4]triazolo[1,5-d][1,4]benzodiazepine], the Ki in assay [1] (setting [5]) came to 58.8 nM; in assay [2] (setting [7]), 136 nM; in assay [3] (setting [8]), 187 nM; in assay [4] (setting [6]), 7 nM.

With `CCCCc1ccc2c(c1)-c1ncnn1Cc1c(Cl)ncn1-2` [Example 65, 3-Butyl-10-chloro-9H-imidazo[1,5-a][1,2,4]triazolo[1,5-d][1,4]benzodiazepine], the Ki in assay [1] was determined as 39.2 nM; in assay [2] (setting [7]), 106 nM; in assay [3] (setting [8]) it was 115 nM; in assay [4], 9.6 nM.

For the molecule `C=Cc1ccc2c(c1)-c1ncnn1Cc1c(Cl)ncn1-2` [Example 66, 10-Chloro-3-vinyl-9H-imidazo[1,5-a][1,2,4]triazolo[1,5-d][1,4]benzodiazepine], the inhibition constant Ki was 20.6 nM in assay [1] (setting [5]), 17.5 nM in assay [2] (setting [7]), 16.8 nM in assay [3] (setting [8]) and 1.4 nM in assay [4] (setting [6]).

As for `COC(=O)c1ccc2c(c1)-c1ncnn1Cc1c(Cl)ncn1-2` [Example 69, 10-Chloro-3-(methoxy-carbonyl)-9H-imidazo[1,5-a][1,2,4]triazolo[1,5-d][1,4]benzodiazepine], the Ki in assay [1] (setting [5]) is 7.5 nM; in assay [2], 11.6 nM; in assay [3], 7.5 nM; in assay [4] (setting [6]) it was 1 nM.

Turning to `C=C=Cc1ccc2c(c1)-c1ncnn1Cc1c(Cl)ncn1-2` [Example 70, 10-Chloro-3-(propa-1,2-dienyl)-9H-imidazo[1,5-a][1,2,4]triazolo[1,5-d][1,4]benzodiazepine], the Ki in assay [1] (setting [5]) amounted to 26.9 nM; in assay [2], 30.3 nM; in assay [3], 30.7 nM; in assay [4] (setting [6]), 3.2 nM.

Consider `Clc1ncn2c1Cn1ncnc1-c1cc(NC3CC3)ccc1-2` [Example 72, 10-chloro-3-cyclopropylamino-9H-imidazo[1,5-a][1,2,4]triazolo[1,5-d][1,4]benzodiazepine], for which the Ki in assay [1] (setting [5]) was found to be 21 nM; in assay [2], 93.7 nM; in assay [3] it was 78.8 nM; in assay [4] (setting [6]) it was 2.2 nM.
